Biological target: T1, human glucagon receptor (Homo sapiens, UniProt P47871)
T1 construct: made in house; host or cells: FreeStyle CHO cells, transient transfection with pMSRαneo/hGCGR; membrane fraction (35,000 rpm pellet)
Assay: Glucagon binding inhibitory activity ([125I]-glucagon binding to glucagon receptor membrane protein)
Conditions: human glucagon receptor membrane protein, [125I]-glucagon, 90 min room temperature
Method in brief: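 Receptor source was a membrane fraction of transiently transfected CHO cells bearing human receptor; 90 min room-temperature binding, filtration harvest, scintillation counting.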

T1 sequence (P47871 26-477): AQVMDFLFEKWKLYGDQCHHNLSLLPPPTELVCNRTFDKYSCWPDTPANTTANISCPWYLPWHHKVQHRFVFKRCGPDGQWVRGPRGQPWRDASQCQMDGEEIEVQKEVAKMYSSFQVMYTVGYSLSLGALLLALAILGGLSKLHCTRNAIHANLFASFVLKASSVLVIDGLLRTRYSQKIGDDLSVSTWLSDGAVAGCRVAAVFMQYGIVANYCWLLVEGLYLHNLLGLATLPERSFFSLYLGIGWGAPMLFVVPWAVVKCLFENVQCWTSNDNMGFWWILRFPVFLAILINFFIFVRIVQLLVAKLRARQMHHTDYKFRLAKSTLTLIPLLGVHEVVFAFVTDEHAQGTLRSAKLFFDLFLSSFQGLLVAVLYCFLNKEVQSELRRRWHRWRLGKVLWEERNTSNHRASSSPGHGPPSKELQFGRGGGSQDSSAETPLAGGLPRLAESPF

Q: For `Cc1nn(Cc2ccccc2)cc1C(Nc1ccc(C(=O)NCCC(=O)O)cc1)C1CCCCC1` (stereo not drawn) [Example 41, 3-{[(4-{[(1-benzyl-3-methyl-1H-pyrazol-4-yl)(cyclohexyl)methyl]amino}phenyl)carbonyl]amino}propanoic acid], which IC50 is on record?
A: The IC50 was 2.3 µM.

Same assay, conditions: test compound 10 μM; 0.4% DMSO = 0%, non-labeled glucagon 1 μM = 100%

Q: How did the “inhibitory rate (%) at 10 μM” value turn out when `COc1ccc2oc(C(Nc3ccc(C(=O)N(C)CCC(=O)O)cc3)C3CCCCC3)c(C)c2c1` (stereo not drawn) [Example A43, 3-{[(4-{[cyclohexyl(5-methoxy-3-methyl-1-benzofuran-2-yl)methyl]amino}phenyl)carbonyl](methyl)amino}propanoic acid] was run?
A: The value was 80%.

Q: Which “inhibitory rate (%) at 10 μM” value does the source give for `COCCOc1ccc2oc(C(Nc3ccc(C(=O)N(C)CCC(=O)O)cc3)C3CCCCC3)c(C)c2c1` (stereo not drawn) [Example A80, 3-[{[4-({cyclohexyl[5-(2-methoxyethoxy)-3-methyl-1-benzofuran-2-yl]methyl}amino)phenyl]carbonyl}(methyl)amino]propanoic acid] here?
A: Its value is 92%.

Same assay, conditions: test compound 10 μM; 0.4% DMSO = 0%, non-labeled glucagon 1 μM = 100%; read-out: inhibitory rate (%) at 10 μM

Q: `Cc1c(C(Nc2ccc(C(=O)N(C)CCC(=O)O)cc2)C2CCCCC2)sc2ccncc12` (stereo not drawn) [Example A139, 3-{[(4-{[cyclohexyl(3-methylthieno[3,2-c]pyridin-2-yl)methyl]amino}phenyl)carbonyl](methyl)amino}propanoic acid] was tested. Which inhibition at 10 µM did it give?
A: The inhibition at 10 µM was 76%.

Q: For `Cc1c(C(Nc2ccc(C(=O)N(C)CCC(=O)O)cc2)C2CCCCC2)oc2ccc(N3CCSCC3)cc12` (stereo not drawn) [Example A187, 3-[{[4-({cyclohexyl[3-methyl-5-(thiomorpholin-4-yl)-1-benzofuran-2-yl]methyl}amino)phenyl]carbonyl}(methyl)amino]propanoic acid], which inhibition at 10 µM is on record?
A: Its inhibition at 10 µM is 90%.

Q: How did the inhibition at 10 µM turn out when `COc1ccc2oc(C(Nc3ccc(C(=O)N(C)CCC(=O)O)cc3)c3ccccc3)c(C)c2c1` (stereo not drawn) [Example A114, 3-{[(4-{[(5-methoxy-3-methyl-1-benzofuran-2-yl)(phenyl)methyl]amino}phenyl)carbonyl](methyl)amino}-propanoic acid] was run?
A: The inhibition at 10 µM was 70%.

Q: With `Cc1nn(-c2ncc(C(F)(F)F)cc2Cl)cc1C(Nc1ccc(C(=O)NCCC(=O)O)cc1)C1CCCCC1` (stereo not drawn) [Example 31, 3-{[(4-{[{1-[3-chloro-5-(trifluoromethyl)pyridin-2-yl]-3-methyl-1H-pyrazol-4-yl}(cyclohexyl)methyl]amino}phenyl)carbonyl]amino}propanoic acid] as the molecule, how does the inhibition at 10 µM read?
A: Its inhibition at 10 µM is 67%.

Q: For `Cc1c(C(CC(C)C)Nc2ccc(C(=O)N(C)CCC(=O)O)cc2)oc2ccc(OCc3ccccc3)cc12` (stereo not drawn) [Example A159, 3-[{[4-({1-[5-(benzyloxy)-3-methyl-1-benzofuran-2-yl]-3-methylbutyl}amino)phenyl]carbonyl}(methyl)amino]propanoic acid], which inhibition at 10 µM is on record?
A: The inhibition at 10 µM was 74%.

Q: `COc1ccc2oc(C(Nc3ccc(C(=O)NCCC(=O)O)cc3)C3CCCCC3)cc2c1` (stereo not drawn) [Example A22, 3-{[(4-{[cyclohexyl(5-methoxy-1-benzofuran-2-yl)methyl]amino}phenyl)carbonyl]amino}propanoic acid] was tested. Which inhibition at 10 µM did it give?
A: The inhibition at 10 µM was 66%.

Q: Which inhibition at 10 µM does the source give for `CCOc1cccc(-n2cc(C(CC(C)C)Nc3ccc(C(=O)N(C)CCC(=O)O)cc3)c(CC)n2)c1` (stereo not drawn) [Example 85, 3-[{[4-({1-[1-(3-ethoxyphenyl)-3-ethyl-1H-pyrazol-4-yl]-3-methylbutyl}amino)phenyl]carbonyl}(methyl)amino]propanoic acid] here?
A: The inhibition at 10 µM was 68%.

Q: How did the inhibition at 10 µM turn out when `COCc1nn(-c2ccc(OC)cc2)cc1C(Nc1ccc(C(=O)N(C)CCC(=O)O)cc1)C1CCCCC1` (stereo not drawn) [Example 36, 3-[{[4-({cyclohexyl[3-(methoxymethyl)-1-(4-methoxyphenyl)-1H-pyrazol-4-yl]methyl}amino)phenyl]carbonyl}(methyl)amino]propanoic acid] was run?
A: Its inhibition at 10 µM is 69%.

Q: How did the inhibition at 10 µM turn out when `Cc1c(C(Nc2ccc(C(=O)NCCC(=O)O)cc2)C2CCCCC2)oc2cc(F)ccc12` (stereo not drawn) [Example A96, 3-{[(4-{[cyclohexyl(6-fluoro-3-methyl-1-benzofuran-2-yl)methyl]amino}phenyl)carbonyl]amino}propanoic acid] was run?
A: Its inhibition at 10 µM is 76%.

Q: `CCC(CC)C(Nc1ccc(C(=O)NCCC(=O)O)cc1)c1oc2ccc(OC)cc2c1C` (stereo not drawn) [Example A104, 3-{[(4-{[2-ethyl-1-(5-methoxy-3-methyl-1-benzofuran-2-yl)butyl]amino}phenyl)carbonyl]amino}propanoic acid] was tested. Which inhibition at 10 µM did it give?
A: The inhibition at 10 µM was 68%.

Q: With `CCCCCCC(Nc1ccc(C(=O)N(C)CCC(=O)O)cc1)c1oc2ccc(OC)cc2c1C` (stereo not drawn) [Example A119, 3-{[(4-{[1-(5-methoxy-3-methyl-1-benzofuran-2-yl)heptyl]amino}phenyl)carbonyl](methyl)amino}propanoic acid] as the molecule, how does the inhibition at 10 µM read?
A: The inhibition at 10 µM was 70%.

Q: How did the inhibition at 10 µM turn out when `COc1ccc(-n2cc(C(Nc3ccc(C(=O)NCCC(=O)O)cc3)C3CCCCC3)c(CN3CCOCC3)n2)cc1` (stereo not drawn) [Example 68, 3-({[4-({cyclohexyl[1-(4-methoxyphenyl)-3-(morpholin-4-ylmethyl)-1H-pyrazol-4-yl]methyl}amino)phenyl]carbonyl}amino)propanoic acid] was run?
A: Its inhibition at 10 µM is 66%.

Q: For `CCc1nn(-c2ccc(C(F)(F)F)cn2)cc1C(Nc1ccc(C(=O)NCCC(=O)O)cc1)C1CCCCC1` (stereo not drawn) [Example 3, 3-[({4-[(cyclohexyl{3-ethyl-1-[5-(trifluoromethyl)pyridin-2-yl]-1H-pyrazol-4-yl}methyl)amino]phenyl}carbonyl)amino]propanoic acid], which inhibition at 10 µM is on record?
A: The inhibition at 10 µM was 74%.

Q: How did the inhibition at 10 µM turn out when `COc1ncccc1-c1ccc2oc(C(Nc3ccc(C(=O)N(C)CCC(=O)O)cc3)C(C)C)c(C)c2c1` (stereo not drawn) [Example A183, 3-[{[4-({1-[5-(2-methoxypyridin-3-yl)-3-methyl-1-benzofuran-2-yl]-2-methylpropyl}amino)phenyl]carbonyl}(methyl)amino]propanoic acid] was run?
A: Its inhibition at 10 µM is 88%.

Q: For `COc1ccc(-n2cc(C(CC(C)C)Nc3ccc(C(=O)N(C)CCC(=O)O)cc3)c(C3CC3)n2)cc1` (stereo not drawn) [Example 45, 3-[{[4-({1-[3-cyclopropyl-1-(4-methoxyphenyl)-1H-pyrazol-4-yl]-3-methylbutyl}amino)phenyl]carbonyl}(methyl)amino]propanoic acid], which inhibition at 10 µM is on record?
A: The inhibition at 10 µM was 60%.

Q: For `Cc1c(C(Nc2ccc(C(=O)N(C)CCC(=O)O)cc2)C2CCCCC2)oc2c(F)cc(F)cc12` (stereo not drawn) [Example A164, 3-{[(4-{[cyclohexyl(5,7-difluoro-3-methyl-1-benzofuran-2-yl)methyl]amino}phenyl)carbonyl](methyl)amino}propanoic acid], which inhibition at 10 µM is on record?
A: Its inhibition at 10 µM is 85%.

Q: With `Cc1c(C(Nc2ccc(C(=O)N(C)CCC(=O)O)cc2)C2CCCCC2)oc2ccc(OCc3cccnc3)cc12` (stereo not drawn) [Example A156, 3-[{[4-({cyclohexyl[3-methyl-5-(pyridin-3-ylmethoxy)-1-benzofuran-2-yl]methyl}amino)phenyl]carbonyl}(methyl)amino]propanoic acid] as the molecule, how does the inhibition at 10 µM read?
A: Its inhibition at 10 µM is 80%.

Q: How did the inhibition at 10 µM turn out when `Cc1c(C(Nc2ccc(C(=O)NCCC(=O)O)cc2)C2CCCCC2)sc2ccncc12` (stereo not drawn) [Example A138, 3-{[(4-{[cyclohexyl(3-methylthieno[3,2-c]pyridin-2-yl)methyl]amino}phenyl)carbonyl]amino}propanoic acid] was run?
A: The inhibition at 10 µM was 85%.

Q: With `Cc1c(C(Nc2ccc(C(=O)N(C)CCC(=O)O)cc2)C2CCCCC2)oc2ccc(Cl)cc12` (stereo not drawn) [Example A89] as the molecule, how does the inhibition at 10 µM read?
A: The inhibition at 10 µM was 80%.

Q: Which inhibition at 10 µM does the source give for `CCn1nc(-c2ccc(C(F)(F)F)cc2)cc1C(Nc1ccc(C(=O)NCCC(=O)O)cc1)C1CCCCC1` (stereo not drawn) [Example 56, 3-[({4-[(cyclohexyl{1-ethyl-3-[4-(trifluoromethyl)phenyl]-1H-pyrazol-5-yl}methyl)amino]phenyl}carbonyl)amino]propanoic acid] here?
A: The inhibition at 10 µM was 76%.

Q: For `Cc1c(C(Nc2ccc(C(=O)N(C)CCC(=O)O)cc2)C2CCCCC2)sc2ncccc12` (stereo not drawn) [Example A143, 3-{[(4-{[cyclohexyl(3-methylthieno[2,3-b]pyridin-2-yl)methyl]amino}phenyl)carbonyl](methyl)amino}propanoic acid], which inhibition at 10 µM is on record?
A: Its inhibition at 10 µM is 75%.

Q: For `Cc1nn(-c2ccc(OC(F)(F)F)cc2)cc1C(Nc1ccc(C(=O)NCCC(=O)O)cc1)C1CCCCC1` (stereo not drawn) [Example 25, 3-[({4-[(cyclohexyl{3-methyl-1-[4-(trifluoromethoxy)phenyl]-1H-pyrazol-4-yl}methyl)amino]phenyl}carbonyl)amino]propanoic acid], which inhibition at 10 µM is on record?
A: The inhibition at 10 µM was 78%.

Q: For `Cc1c(C(Nc2ccc(C(=O)N(C)CCC(=O)O)cc2)C2CCCCC2)sc2cccnc12` (stereo not drawn) [Example A145, 3-{[(4-{[cyclohexyl(3-methylthieno[3,2-b]pyridin-2-yl)methyl]amino}phenyl)carbonyl](methyl)amino}propanoic acid], which inhibition at 10 µM is on record?
A: The inhibition at 10 µM was 76%.

Q: How did the inhibition at 10 µM turn out when `O=C(O)CCNC(=O)c1ccc(NC(c2cc3ccccc3s2)C2CCCCC2)cc1` (stereo not drawn) [Example A6, 3-{[(4-{[1-benzothiophen-2-yl(cyclohexyl)methyl]amino}phenyl)carbonyl]amino}propanoic acid] was run?
A: Its inhibition at 10 µM is 87%.

Q: Which inhibition at 10 µM does the source give for `Cc1nn(Cc2ccccc2)cc1C(Nc1ccc(C(=O)NCCC(=O)O)cc1)C1CCCCC1` (stereo not drawn) [Example 41, 3-{[(4-{[(1-benzyl-3-methyl-1H-pyrazol-4-yl)(cyclohexyl)methyl]amino}phenyl)carbonyl]amino}propanoic acid] here?
A: Its inhibition at 10 µM is 60%.

Q: For `Cc1c(C(Nc2ccc(C(=O)N(C)CCC(=O)O)cc2)C(C)C)oc2ccc(F)cc12` (stereo not drawn) [Example A192], which inhibition at 10 µM is on record?
A: The inhibition at 10 µM was 72%.

Q: Which inhibition at 10 µM does the source give for `O=C(O)CCNC(=O)c1ccc(NC(c2cc3cc(C(F)(F)F)ccc3s2)C2CCCCC2)cc1` (stereo not drawn) [Example A11, 3-({[4-({cyclohexyl[5-(trifluoromethyl)-1-benzothiophen-2-yl]methyl}amino)phenyl]carbonyl}amino)propanoic acid] here?
A: The inhibition at 10 µM was 74%.

Q: For `Cc1nn(-c2cccc(Cl)c2)cc1C(Nc1ccc(C(=O)N(C)CCC(=O)O)cc1)C1CCCCC1` (stereo not drawn) [Example 71, 3-[{[4-({[1-(3-chlorophenyl)-3-methyl-1H-pyrazol-4-yl](cyclohexyl)methyl}amino)phenyl]carbonyl}(methyl)amino]-propanoic acid], which inhibition at 10 µM is on record?
A: The inhibition at 10 µM was 71%.

Q: `O=C(O)CCNC(=O)c1ccc(NC(c2nn(-c3ccccc3)c3ccccc23)C2CCCCC2)cc1` (stereo not drawn) [Example A14, 3-{[(4-{[cyclohexyl(1-phenyl-1H-indazol-3-yl)methyl]amino}phenyl)carbonyl]amino}propanoic acid] was tested. Which inhibition at 10 µM did it give?
A: The inhibition at 10 µM was 73%.

Q: Which inhibition at 10 µM does the source give for `Cc1c(C(COc2ccccc2)Nc2ccc(C(=O)NCCC(=O)O)cc2)oc2ccccc12` (stereo not drawn) [Example A94, 3-{[(4-{[1-(3-methyl-1-benzofuran-2-yl)-2-phenoxyethyl]amino}phenyl)carbonyl]amino}propanoic acid] here?
A: Its inhibition at 10 µM is 57%.

From patent US8436043B2 (Takeda Pharmaceutical Company Limited, priority 2008, dated 2013)
